Source: patent US6228866A, “Condensed piperidine compound” (Ono Pharmaceutical Co., Ltd., priority 1997, dated 2001)

Each compound was assayed against T1, i-NOS (Homo sapiens, UniProt P35228) (assay: i-NOS Inhibition Test). Settings: i-NOS from supernatant of A549 cells stimulated with LPS, TNF-α, IL-1β, INF-γ; 14C-L-arginine substrate; 37° C., 10 minutes; pH 7.8.
T1 construct: The supernatant was collected as a source of i-NOS; endogenous in cells; host or cells: A549 (human lung epithelial cell line), stimulated with LPS, TNF-alpha, IL-1beta and IFN-gamma; sonicated, 54,000 rpm supernatant
Assay type: biochemical
Protocol: The pharmacological activity of the compound of formula (I) according to the present invention on i-NOS was examined by the following test.
To human lung epithelial cell line of A549 were added 10 μg/ml of lipopolysaccharide (LPS), 10 ng/ml of tumor necrosis factor-α (TNF-α), 5 ng/ml of interleukin-1β (IL-1β), and 100 ng/ml of interferon-γ (INF-γ). Sixteen hours later the cells were ruptured by ultrasonication and centrifuged at 54,000 rpm. The supernatant was collected as a source of i-NOS.
i-NOS was made to act on ^14 C-labeled L-arginine as a substrate, and L-citrulline produced in the presence of the compound of the invention was determined to calculate the 50% inhibitory concentration of the test compound. More specifically, 10 μl of a 16.8 μM solution of L-[U-^14 C]arginine, 10 μl of the above-prepared i-NOS source, and 10 μl of varied amount of a test compound were added to 70 μl of a solution comprising 50 mM HEPES (N-2-hydroxyethylpiperazine-N'-2-ethanesulfonic acid) (pH 7.8), 1 mM DTT (dithiothreitol), 1 mM NADPH (reduced nicotinamide adenine dinucleotide phosphate), 0.1 mM BH4 (tetrahydrobiopterin), 10 μM FAD (flavin adenine dinucleotide), and 500 units/ml of CaM (calmodulin), and the solution was made to 100 μl. After incubation at 37° C. for 10 minutes, 0.225 ml of a reaction terminating buffer consisting of 100 mM HEPES (pH 5.1 to 5.5) and 10 mM EDTA (ethylenediaminetetraacetic acid) was added while cooling with ice to cease the enzymatic reaction. The reaction solution was passed through a column packed with 0.25 ml of Dowex 50WX-8 (Na^+ form) to remove unreacted L-arginine and the column was washed with 0.45 ml of the reaction terminating buffer to collect an effluent containing L-citrulline. The radioactivity of the effluent was measured with a liquid scintillation counter, which was taken as NOS activity, from which a 50% inhibition concentration of the test compound was obtained.

SMILES	IC50 [nM]
C[C@H]1[C@H]2NC(=N)C[C@H](C)[C@@H]12 (relative stereo) [2 (g)]	92
C[C@H]1CC(=N)N[C@@H]2C[C@H]12 (relative stereo) [3 (a)]	90
C[C@H]1CC(=N)N[C@@H]2[C@H](Cl)[C@@H]21 (relative stereo) [3 (c)]	20
C[C@@H]1CC(=N)N[C@@H]2C[C@H]12 (relative stereo) [3 (g)]	47
C[C@@H]1CC(=N)N[C@@]2(C)C[C@@H]12 (relative stereo) [3 (i)]	130
C[C@H]1CC(=N)N[C@H]2[C@@H]1C2(Cl)Cl (relative stereo) [4 (a)]	57
C[C@H]1CC(=N)N[C@H]2[C@@H]1C2(C)C (relative stereo) [compound 1]	220
C[C@H]1CC(=N)N[C@H]2[C@@H]1C2(Cl)Cl (single isomer, unassigned) [compound 4]	21
C[C@@H]1CC(=N)N[C@H]2C[C@@H]12 [3 (f)]	180
C[C@H]1CC(=N)N[C@@H]2[C@H](Cl)[C@@H]21 [compound 3]	12
N=C1CC2(CCN1)CC2 [compound 7]	200
